21 compounds from patent US8106055B2, “Substituted amide compounds” (Gruenenthal GmbH, priority 2007, dated 2012) can be followed below.

For experiment [1], the target named is T1, human bradykinin 1 receptor (B1R) (Homo sapiens, UniProt P46663).
T1 construct: expressed in transfected cells; host or cells: CHO K1 cells
T1 sequence (P46663 1-353): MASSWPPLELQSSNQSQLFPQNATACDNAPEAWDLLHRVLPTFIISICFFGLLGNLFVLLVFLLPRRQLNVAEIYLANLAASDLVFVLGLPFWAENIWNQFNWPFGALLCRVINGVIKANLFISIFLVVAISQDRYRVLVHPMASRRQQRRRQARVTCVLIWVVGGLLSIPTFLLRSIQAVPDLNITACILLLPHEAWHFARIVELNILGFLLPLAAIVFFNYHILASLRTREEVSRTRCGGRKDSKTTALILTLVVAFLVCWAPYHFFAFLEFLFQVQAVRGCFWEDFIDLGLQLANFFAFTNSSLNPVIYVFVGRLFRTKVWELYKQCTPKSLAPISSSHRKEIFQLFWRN
Description: Functional investigation on the human bradykinin 1 receptor (B1R), Ca2+ FLIPR assay in CHO K1 hB1R cells. Type of experiment: cell-based. In outline:
(§1)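 Fluo-4 Ca2+ readout, peak fluorescence. Stable CHO K1 transfectants; compound pre-incubated 10-20 min, then EC80 agonist—Lys-Des-Arg9-BK for hB1R, Des-Arg9-BK for rB1R. % inhibition vs maximal inhibition; IC50 from multiple concentrations, duplicate/triplicate, ≥2 independent runs.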

The target of experiment [2] is T2, bradykinin 1 receptor (B1R) of the rat (Rattus norvegicus, UniProt P97583).
T2 construct: expressed in transfected cells; host or cells: CHO K1 cells
T2 sequence (P97583 1-337): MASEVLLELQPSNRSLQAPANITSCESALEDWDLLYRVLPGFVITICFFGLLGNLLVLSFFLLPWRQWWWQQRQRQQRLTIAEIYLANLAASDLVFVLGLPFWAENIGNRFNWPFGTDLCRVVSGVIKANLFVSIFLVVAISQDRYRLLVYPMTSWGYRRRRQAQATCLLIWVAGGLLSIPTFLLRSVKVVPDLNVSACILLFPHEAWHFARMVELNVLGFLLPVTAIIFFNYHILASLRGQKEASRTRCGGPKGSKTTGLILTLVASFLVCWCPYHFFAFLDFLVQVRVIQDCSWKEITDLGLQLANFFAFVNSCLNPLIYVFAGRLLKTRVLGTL
Description: Functional investigation on the rat bradykinin 1 receptor (B1R), Ca2+ FLIPR assay in CHO K1 rB1R cells. In kind it is cell-based. In outline: as §1

Where [3] appears, read: CHO-K1, B1R antagonism human, test substance 10 μM, Ca2+ FLIPR, CHO K1 hB1R cells, read-out: B1R Ant. h [10 μM] % Inhibition.
Where [4] appears, read: CHO-K1, B1R antagonism rat, test substance 10 μM, Ca2+ FLIPR, CHO K1 rB1R cells, read-out: B1R Ant. r [10 μM] % Inhibition.
Setting [5] is: CHO-K1, read-out: B1R Ant. h [10 μM] % Inhibition.
Setting [6] is: CHO-K1, read-out: B1R Ant. r [10 μM] % Inhibition.

Where two headings read alike, the source gives them in different places.

As for `CN(C)C(c1cccs1)C1CCC(CNC(=O)COCCN(C)S(=O)(=O)c2ccc(Cl)cc2)CC1` (stereo not drawn) [Example 55, 2-(2-(4-chloro-N-methylphenylsulfonamido)ethoxy)-N-((4-((dimethylamino)(thiophen-2-yl)methyl)cyclohexyl)methyl)acetamide], the inhibition at 10 µM in experiment [1] (setting [3]) came to 11%; in experiment [2] (setting [4]), 34%.

With `CN(C)C(c1cccs1)C1CCC(CNC(=O)COCCN(C)S(=O)(=O)c2ccc(F)cc2)CC1` (stereo not drawn) [Example 56, N-((4-((dimethylamino)(thiophen-2-yl)methyl)cyclohexyl)methyl)-2-(2-(4-fluoro-N-methylphenylsulfonamido)ethoxy)acetamide], the values for the inhibition at 10 µM in experiment [1] (setting [5]) and in experiment [2] (setting [6]) were 22% and -4%, respectively.

For `Cc1cc(C)c(S(=O)(=O)N(C)CCOCC(=O)NCC2CCC(C(c3cccs3)N(C)C)CC2)c(C)c1` (stereo not drawn) [Example 57, N-((4-((dimethylamino)(thiophen-2-yl)methyl)cyclohexyl)methyl)-2-(2-(N,2,4,6-tetramethylphenylsulfonamido)ethoxy)acetamide], the figures for the inhibition at 10 µM in experiment [1] (setting [3]) and in experiment [2] (setting [4]) were 82% and 35%, respectively.

Take `COc1cc(C)c(S(=O)(=O)N2CCC(OCC(=O)NCC3CCC(C(c4cccs4)N(C)C)CC3)C2)c(C)c1C` (stereo not drawn) [Example 58, N-((4-((dimethylamino)(thiophen-2-yl)methyl)cyclohexyl)methyl)-2-(1-(4-methoxy-2,3,6-trimethylphenylsulfonyl)pyrrolidin-3-yloxy)acetamide]: the inhibition at 10 µM in experiment [1] (setting [3]) was determined as 52%; in experiment [2] (setting [4]) it was 5%.

For `CCN(CCOCC(=O)NC1CCC(C(c2cccs2)N(C)C)CC1)S(=O)(=O)c1c(C)cc(OC)c(C)c1C` (stereo not drawn) [Example 59, N-(4-((dimethylamino)(thiophen-2-yl)methyl)cyclohexyl)-2-(2-(N-ethyl-4-methoxy-2,3,6-trimethylphenylsulfonamido)ethoxy)acetamide], the inhibition at 10 µM in experiment [1] (setting [3]) was found to be 56%; in experiment [2] (setting [4]) it was 70%.

In the case of `COc1cc(C)c(S(=O)(=O)N2CCCC(OCC(=O)NCC3CCC(C(c4cccs4)N(C)C)CC3)C2)c(C)c1C` (stereo not drawn) [Example 60, N-((4-((dimethylamino)(thiophen-2-yl)methyl)cyclohexyl)methyl)-2-(1-(4-methoxy-2,3,6-trimethylphenylsulfonyl)piperidin-3-yloxy)acetamide], the inhibition at 10 µM in experiment [1] (setting [3]) came out at 28%; in experiment [2] (setting [4]), 11%.

As to `COc1cc(C)c(S(=O)(=O)N2CCN(CCOCC(=O)NCC3CCC(C(c4ccccc4)N(C)C)CC3)CC2)c(C)c1C` (stereo not drawn) [Example 61, N-((4-((dimethylamino)(phenyl)methyl)cyclohexyl)methyl)-2-(2-(4-(4-methoxy-2,3,6-trimethylphenylsulfonyl)piperazin-1-yl)ethoxy)acetamide], the inhibition at 10 µM in experiment [1] (setting [3]) is 63%; in experiment [2] (setting [4]), 25%.

Turning to `COc1ccc(S(=O)(=O)N2CCCCC2CCOCC(=O)NC2CCC(C(c3cccc(F)c3)N(C)C)CC2)cc1` (stereo not drawn) [Example 62, N-(4-((dimethylamino)(3-fluorophenyl)methyl)cyclohexyl)-2-(2-(1-(4-methoxyphenylsulfonyl)piperidin-2-yl)ethoxy)acetamide], the values for the inhibition at 10 µM in experiment [1] (setting [3]) and in experiment [2] (setting [4]) were 40% and 32%, respectively.

Turning to `Cc1cc(C)c(S(=O)(=O)N2CCC(OCC(=O)NC3CCC(C(c4ccccc4)N(C)C)CC3)C2)c(C)c1` (stereo not drawn) [Example 64, N-(4-((dimethylamino)(phenyl)methyl)cyclohexyl)-2-(1-(mesitylsulfonyl)pyrrolidin-3-yloxy)acetamide], the inhibition at 10 µM amounted to 60% in experiment [1] (setting [3]) and 16% in experiment [2] (setting [4]).

Regarding `CN(C)C(c1cccs1)C1CCC(CCNC(=O)COCCN(C)S(=O)(=O)c2ccc(OC(F)(F)F)cc2)CC1` (stereo not drawn) [Example 65, N-(2-(4-((dimethylamino)(thiophen-2-yl)methyl)cyclohexyl)ethyl)-2-(2-(N-methyl-4-(trifluoromethoxy)phenylsulfonamido)ethoxy)acetamide], the inhibition at 10 µM in experiment [1] (setting [3]) was 12%; in experiment [2] (setting [4]), 18%.

Turning to `CN(C)C(c1cccs1)C1CCC(CCNC(=O)COC2CCN(S(=O)(=O)c3ccc(Cl)cc3)C2)CC1` (stereo not drawn) [Example 66, 2-(1-(4-chlorophenylsulfonyl)pyrrolidin-3-yloxy)-N-(2-(4-((dimethylamino)(thiophen-2-yl)methyl)cyclohexyl)ethyl)acetamide], the results for the inhibition at 10 µM in experiment [1] (setting [3]) and in experiment [2] (setting [4]) were -1% and 30%, respectively.

With `CN(C)C(c1ccccc1)C1CCC(CNC(=O)COC2CCN(S(=O)(=O)c3ccc(Cl)cc3Cl)C2)CC1` (stereo not drawn) [Example 67, 2-(1-(2,4-dichlorophenylsulfonyl)pyrrolidin-3-yloxy)-N-((4-((dimethylamino)(phenyl)methyl)cyclohexyl)methyl)acetamide], the inhibition at 10 µM is 48% in experiment [1] (setting [5]) and 46% in experiment [2] (setting [6]).

In the case of `Cc1ccc(S(=O)(=O)N2CCC(OCC(=O)NCC3CCC(C(c4cccs4)N(C)C)CC3)C2)cc1` (stereo not drawn) [Example 68, N-((4-((dimethylamino)(thiophen-2-yl)methyl)cyclohexyl)methyl)-2-(1-tosylpyrrolidin-3-yloxy)acetamide], the results for the inhibition at 10 µM in experiment [1] (setting [3]) and in experiment [2] (setting [4]) were 18% and 39%, respectively.

In the case of `COc1cc(C)c(S(=O)(=O)N(C)CCOCC(=O)NCC2CCC(C(c3cccs3)N(C)C)CC2)c(C)c1` (stereo not drawn) [Example 69, N-((4-((dimethylamino)(thiophen-2-yl)methyl)cyclohexyl)methyl)-2-(2-(4-methoxy-N,2,6-trimethylphenylsulfonamido)ethoxy)acetamide], the inhibition at 10 µM in experiment [1] (setting [3]) came to 104%; in experiment [2] (setting [4]) it was 100%.

Turning to `CN(C)C(c1cccc(F)c1)C1CCC(CNC(=O)COCCN(C)S(=O)(=O)c2ccc(Cl)cc2Cl)CC1` (stereo not drawn) [Example 70, 2-(2-(2,4-dichloro-N-methylphenylsulfonamido)ethoxy)-N-((4-((dimethylamino)(3-fluorophenyl)methyl)cyclohexyl)methyl)acetamide], the inhibition at 10 µM worked out at 98% in experiment [1] (setting [3]) and 31% in experiment [2] (setting [4]).

With `Cc1cc(C)c(S(=O)(=O)N2CCC(OCC(=O)NCCC3CCC(C(c4cccs4)N(C)C)CC3)C2)c(C)c1` (stereo not drawn) [Example 71, N-(2-(4-((dimethylamino)(thiophen-2-yl)methyl)cyclohexyl)ethyl)-2-(1-(mesitylsulfonyl)pyrrolidin-3-yloxy)acetamide], the inhibition at 10 µM in experiment [1] (setting [3]) is 84%; in experiment [2] (setting [4]), 54%.

For `CN(C)C(c1cccc(F)c1)C1CCC(CNC(=O)COCCN(C)S(=O)(=O)c2c(Cl)cccc2Cl)CC1` (stereo not drawn) [Example 72, 2-(2-(2,6-dichloro-N-methylphenylsulfonamido)ethoxy)-N-((4-((dimethylamino)(3-fluorophenyl)methyl)cyclohexyl)methyl)acetamide], the inhibition at 10 µM came out at 94% in experiment [1] (setting [3]) and 38% in experiment [2] (setting [4]).

With `COc1ccc(S(=O)(=O)N(C)CCOCC(=O)NC2CCC(C(c3cccs3)N(C)C)CC2)cc1` (stereo not drawn) [Example 73, N-(4-((dimethylamino)(thiophen-2-yl)methyl)cyclohexyl)-2-(2-(4-methoxy-N-methylphenylsulfonamido)ethoxy)acetamide], the inhibition at 10 µM in experiment [1] (setting [3]) stood at 11%; in experiment [2] (setting [4]), 29%.

For `COc1cc(C)c(S(=O)(=O)N2CCC(OCC(=O)NCCC3CCC(C(c4cccs4)N(C)C)CC3)C2)c(C)c1C` (stereo not drawn) [Example 74, N-(2-(4-((dimethylamino)(thiophen-2-yl)methyl)cyclohexyl)ethyl)-2-(1-(4-methoxy-2,3,6-trimethylphenylsulfonyl)pyrrolidin-3-yloxy)acetamide], the inhibition at 10 µM in experiment [1] (setting [3]) was determined as 66%; in experiment [2] (setting [4]), 27%.

For the compound `COc1cc(C)c(S(=O)(=O)N2CCC(CCOCC(=O)NCCC3CCC(C(c4cccs4)N(C)C)CC3)CC2)c(C)c1C` (stereo not drawn) [Example 75, N-(2-(4-((dimethylamino)(thiophen-2-yl)methyl)cyclohexyl)ethyl)-2-(2-(1-(4-methoxy-2,3,6-trimethylphenylsulfonyl)piperidin-4-yl)ethoxy)acetamide], the inhibition at 10 µM in experiment [1] (setting [3]) and in experiment [2] (setting [4]) was 15% each time.

As to `COc1cc(C)c(S(=O)(=O)N2CCN(CCOCC(=O)NC3CCC(C(c4cccc(F)c4)N(C)C)CC3)CC2)c(C)c1C` (stereo not drawn) [Example 76, N-(4-((dimethylamino)(3-fluorophenyl)methyl)cyclohexyl)-2-(2-(4-(4-methoxy-2,3,6-trimethylphenylsulfonyl)piperazin-1-yl)ethoxy)acetamide], the figures for the inhibition at 10 µM in experiment [1] (setting [3]) and in experiment [2] (setting [4]) were 52% and -7%, respectively.
